Data on 13 compounds can be found in ChEMBL document CHEMBL1144632, “The rational design of inhibitors of nitric oxide formation by inducible nitric oxide synthase” (Bioorg Med Chem Lett, 2007).

Each structure is given as a SMILES string. Activity calls are given as the source filed them. No cut-off for these calls is given here. Where only a bound is given, the exact number is not on record here.

Assay [1] concerns the target Nitric oxide synthase, inducible (Homo sapiens, UniProt P35228). Description: Inhibition of iNOS in human A172 cells after 18 to 24 hrs. It is filed as cell-based, A 172.
Assay [2] concerns the target T1, Nitric oxide synthase 3 (Homo sapiens) (UniProt P29474).
T1 sequence (whole entry): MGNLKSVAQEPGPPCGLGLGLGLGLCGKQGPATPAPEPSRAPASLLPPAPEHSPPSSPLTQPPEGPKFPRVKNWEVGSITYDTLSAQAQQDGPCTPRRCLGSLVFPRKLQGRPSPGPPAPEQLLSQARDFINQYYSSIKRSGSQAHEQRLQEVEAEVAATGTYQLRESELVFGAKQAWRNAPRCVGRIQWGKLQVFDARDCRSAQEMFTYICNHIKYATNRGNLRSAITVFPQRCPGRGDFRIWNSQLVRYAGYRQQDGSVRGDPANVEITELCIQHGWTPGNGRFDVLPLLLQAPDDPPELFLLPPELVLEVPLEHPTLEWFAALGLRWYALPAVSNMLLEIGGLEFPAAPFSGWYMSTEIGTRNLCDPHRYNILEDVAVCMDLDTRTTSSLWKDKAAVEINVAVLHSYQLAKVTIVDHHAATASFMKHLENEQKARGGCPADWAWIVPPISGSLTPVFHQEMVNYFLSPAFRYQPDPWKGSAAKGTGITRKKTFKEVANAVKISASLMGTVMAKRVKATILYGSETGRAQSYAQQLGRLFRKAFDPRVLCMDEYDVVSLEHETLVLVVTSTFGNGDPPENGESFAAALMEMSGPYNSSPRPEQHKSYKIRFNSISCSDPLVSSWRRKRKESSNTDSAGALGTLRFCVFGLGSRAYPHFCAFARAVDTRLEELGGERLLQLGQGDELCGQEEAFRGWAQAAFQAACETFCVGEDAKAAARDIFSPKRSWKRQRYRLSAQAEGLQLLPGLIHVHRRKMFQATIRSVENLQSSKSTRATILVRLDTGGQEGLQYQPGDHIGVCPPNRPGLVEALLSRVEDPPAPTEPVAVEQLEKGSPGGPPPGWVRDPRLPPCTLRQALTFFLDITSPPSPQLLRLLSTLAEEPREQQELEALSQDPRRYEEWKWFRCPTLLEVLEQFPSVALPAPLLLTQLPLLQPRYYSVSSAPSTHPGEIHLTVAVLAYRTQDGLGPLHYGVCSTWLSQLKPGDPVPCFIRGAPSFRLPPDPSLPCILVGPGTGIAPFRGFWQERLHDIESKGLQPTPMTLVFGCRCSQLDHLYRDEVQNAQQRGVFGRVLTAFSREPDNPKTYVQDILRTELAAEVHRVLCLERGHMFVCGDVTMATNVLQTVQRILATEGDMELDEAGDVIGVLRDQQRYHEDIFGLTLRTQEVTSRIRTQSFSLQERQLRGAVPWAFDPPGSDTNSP
Description: Inhibition of eNOS.

The target of assay [3] is Nitric oxide synthase 1 (Homo sapiens) (UniProt P29475). The experiment in a line: Inhibition of bNOS.
Chain of Nitric oxide synthase 1 (Homo sapiens) (P29475 whole entry): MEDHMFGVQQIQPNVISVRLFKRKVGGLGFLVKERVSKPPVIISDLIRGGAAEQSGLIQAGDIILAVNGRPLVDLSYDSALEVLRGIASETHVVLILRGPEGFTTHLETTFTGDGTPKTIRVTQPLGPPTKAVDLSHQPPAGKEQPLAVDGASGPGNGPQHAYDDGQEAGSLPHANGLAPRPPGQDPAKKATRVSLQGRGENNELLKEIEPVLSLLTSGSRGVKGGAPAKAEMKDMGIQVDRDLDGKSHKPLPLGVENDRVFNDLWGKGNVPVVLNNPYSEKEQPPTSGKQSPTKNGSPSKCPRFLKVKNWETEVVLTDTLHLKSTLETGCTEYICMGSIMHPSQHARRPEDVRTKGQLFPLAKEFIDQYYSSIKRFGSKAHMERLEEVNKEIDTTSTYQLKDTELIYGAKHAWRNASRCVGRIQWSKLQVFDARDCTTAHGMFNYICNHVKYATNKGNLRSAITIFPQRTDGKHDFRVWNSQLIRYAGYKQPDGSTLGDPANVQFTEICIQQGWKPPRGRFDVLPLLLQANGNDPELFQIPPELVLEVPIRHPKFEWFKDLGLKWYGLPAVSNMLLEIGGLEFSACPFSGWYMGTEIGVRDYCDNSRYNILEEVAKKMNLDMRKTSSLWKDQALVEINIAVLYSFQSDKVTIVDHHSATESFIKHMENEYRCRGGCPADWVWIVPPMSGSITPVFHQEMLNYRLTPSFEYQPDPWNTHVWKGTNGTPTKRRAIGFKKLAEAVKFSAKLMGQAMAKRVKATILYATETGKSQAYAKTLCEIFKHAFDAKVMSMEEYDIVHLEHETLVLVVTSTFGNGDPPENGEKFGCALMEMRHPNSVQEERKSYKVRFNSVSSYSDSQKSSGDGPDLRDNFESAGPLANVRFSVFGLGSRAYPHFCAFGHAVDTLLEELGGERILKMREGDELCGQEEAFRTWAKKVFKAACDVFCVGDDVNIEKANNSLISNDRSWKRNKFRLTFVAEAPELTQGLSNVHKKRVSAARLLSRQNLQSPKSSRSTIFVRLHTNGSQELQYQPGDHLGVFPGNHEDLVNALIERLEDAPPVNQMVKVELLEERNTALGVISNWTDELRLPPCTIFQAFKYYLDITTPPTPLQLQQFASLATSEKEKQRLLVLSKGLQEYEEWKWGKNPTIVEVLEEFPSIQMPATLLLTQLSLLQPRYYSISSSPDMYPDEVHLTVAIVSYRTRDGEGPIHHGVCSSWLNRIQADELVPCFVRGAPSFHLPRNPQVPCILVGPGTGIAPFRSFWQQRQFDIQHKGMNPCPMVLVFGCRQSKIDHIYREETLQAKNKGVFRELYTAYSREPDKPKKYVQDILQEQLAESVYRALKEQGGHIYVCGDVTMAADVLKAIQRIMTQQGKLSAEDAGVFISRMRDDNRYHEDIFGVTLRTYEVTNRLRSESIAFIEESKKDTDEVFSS

Chain of Nitric oxide synthase, inducible (P35228 whole entry): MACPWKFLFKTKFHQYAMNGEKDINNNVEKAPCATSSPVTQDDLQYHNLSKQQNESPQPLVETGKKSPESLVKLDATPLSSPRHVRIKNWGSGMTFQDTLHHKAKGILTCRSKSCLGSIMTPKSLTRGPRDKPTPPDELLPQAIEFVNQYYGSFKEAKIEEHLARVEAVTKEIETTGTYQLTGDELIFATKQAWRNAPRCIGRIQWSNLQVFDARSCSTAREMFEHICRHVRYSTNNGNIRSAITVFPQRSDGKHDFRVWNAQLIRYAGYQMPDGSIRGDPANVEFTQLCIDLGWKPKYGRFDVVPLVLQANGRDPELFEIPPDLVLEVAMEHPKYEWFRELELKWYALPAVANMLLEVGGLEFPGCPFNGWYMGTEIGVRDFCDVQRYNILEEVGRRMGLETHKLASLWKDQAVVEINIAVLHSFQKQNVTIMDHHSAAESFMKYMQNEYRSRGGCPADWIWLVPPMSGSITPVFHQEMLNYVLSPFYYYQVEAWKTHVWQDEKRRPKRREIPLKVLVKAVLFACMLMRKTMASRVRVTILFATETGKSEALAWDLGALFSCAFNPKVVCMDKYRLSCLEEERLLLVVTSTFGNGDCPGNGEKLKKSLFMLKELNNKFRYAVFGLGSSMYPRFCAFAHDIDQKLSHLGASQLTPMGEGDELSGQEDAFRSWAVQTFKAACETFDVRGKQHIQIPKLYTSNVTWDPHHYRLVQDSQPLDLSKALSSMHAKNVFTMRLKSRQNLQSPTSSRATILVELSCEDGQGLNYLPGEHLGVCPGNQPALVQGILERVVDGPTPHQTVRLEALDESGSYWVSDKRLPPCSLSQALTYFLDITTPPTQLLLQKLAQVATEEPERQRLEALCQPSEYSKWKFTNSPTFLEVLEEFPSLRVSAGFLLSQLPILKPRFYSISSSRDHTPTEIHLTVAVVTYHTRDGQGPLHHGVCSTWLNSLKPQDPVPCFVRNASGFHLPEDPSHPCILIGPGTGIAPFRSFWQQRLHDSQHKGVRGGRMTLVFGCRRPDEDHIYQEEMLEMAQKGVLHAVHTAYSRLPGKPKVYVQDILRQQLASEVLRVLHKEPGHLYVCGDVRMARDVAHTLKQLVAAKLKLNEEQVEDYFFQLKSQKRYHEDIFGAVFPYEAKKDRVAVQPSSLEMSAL

What is called IC50 is the concentration that gives 50% inhibition. Low readings indicate greater potency in that assay, high ones weaker potency in that assay. `c1cn(-c2ccc(Oc3nccc(Oc4ccc5c(c4)OCO5)n3)cc2)cn1`: in assay [1], the IC50 is 55 nM. Moreover, the result in assay [2] and in assay [3] was inactive.

Regarding `Cc1cc(Oc2ccc3c(c2)OCO3)nc(Oc2ccc(-n3ccnc3)cc2F)n1`, in assay [1], the IC50 turned out to be 92 nM.

Take `Cc1c(F)c(Oc2ccc(-n3ccnc3)cc2)nc(Oc2ccc3c(c2)OCO3)c1F`: in assay [1], the IC50 stood at 450 nM.

`c1cn(-c2ccc(Oc3cc(N4CCOCC4)nc(Cc4ccc5c(c4)OCO5)n3)cc2)cn1` returned a half-inhibitory concentration (IC50) in assay [1] of 830 nM.

Compound `c1cc(Oc2ccc(-n3ccnc3)cc2)nc(Oc2ccc3c(c2)OCO3)c1` gave a 50% inhibitory concentration (IC50) in assay [1] of 78 nM.

As to `Cc1cc(Oc2ccc3c(c2)OCO3)nc(Oc2ccc(-n3ccnc3)cc2C(F)(F)F)n1`, in assay [1], the 50% inhibitory concentration (IC50) was determined as 220 nM.

As to `c1cn(-c2ccc(Oc3ccnc(Oc4ccc5c(c4)OCO5)n3)cc2)cn1`, the IC50 in assay [1] was found to be 74 nM.

With `Clc1cc(Oc2ccc(-n3ccnc3)cc2)nc(Cc2ccc3c(c2)OCO3)n1`, the IC50 in assay [1] was above 10000 nM.

With `Cc1cc(Oc2ccc3c(c2)OCO3)nc(Oc2ccc(-n3ccnc3)cc2)n1`, the IC50 in assay [1] came out at 90 nM.

With `c1cn(-c2ccc(Oc3cc(Oc4ccc5c(c4)OCO5)ncn3)cc2)cn1`, in assay [1], the half-maximal inhibitory concentration (IC50) was above 10000 nM.

As for `CN(C)CCCN(C)c1cc(Oc2ccc(-n3ccnc3)cc2)nc(Cc2ccc3c(c2)OCO3)n1`, the half-inhibitory concentration (IC50) in assay [1] is 220 nM.

In turn, `Cc1cc(Oc2ccc3c(c2)OCO3)nc(Oc2ccc(-n3ccnc3)cc2Cl)n1` gave an IC50 in assay [1] of 19 nM. This IC50 lies about 12-fold lower than the previous one.

Compound `Cc1cnc(Oc2ccc(-n3ccnc3)cc2)nc1Oc1ccc2c(c1)OCO2` came in with a half-inhibitory concentration (IC50) in assay [1] of 130 nM.
